Patent publication US20040063742A1 (priority 2001, published 2004)

Key:
[1] = target: T1, 3H-dopamine uptake in striatal synaptosomes (Rattus norvegicus, UniProt P23977); experiment: In vitro inhibition of 3H-dopamine (3H-DA) uptake in striatal synaptosomes; type: biochemical
T1 construct: Corpi striati from male Wistar rats (150-200 g) are homogenised; from tissue; host or cells: rat corpus striatum (male Wistar), P2 synaptosomal pellet
Method: In vitro Inhibiti n of ^3H-dopamin (3H-DA) Uptake in Striatal Synaptosom s
In this test, the ability of a compound enhancing the dopamine activity (below: the test compound) to inhibit the uptake of ^3H-dopamine in striatal synaptosomes is assessed.
Tissue preparations: Preparations are performed at 0-4° C. unless otherwise indicated. Corpi striati from male Wistar rats (150-200 g) are homogenised for 5-10 sec in 100 volumes of ice-cold 0.32M sucrose containing 1 mM pargyline using an Ultra-Turrax homogenizer. Monoamine oxidase activity will be inhibited in the presence of pargyline. The homogenate is centrifuged at 1000×g for 10 min. The resulting supernatant is then centrifuged at 27,000×g for 50 min and the supernatant is discarded. […]
Assay: Aliquots of 4.0 ml tissue suspension are added to 100 μl of test solution and 100 μl of ^3H-DA (1 nM, final concentration), mixed and incubated for 25 min at 37° C. Non-specific uptake is determined using benztropine (10 μM, final concentration). […] The amount of radioactivity on the filters is determined by conventional liquid scintillation counting. Specific uptake is calculated as the difference between total uptake and non-specific uptake. […]

[2] = tested on: dopaminergic neurons in dissociated cultures from rat E14 ventral mesencephali; experiment: Survival of embryonic rat dopaminergic neurons; type: cell-based; conditions: TH-immunoreactive cells, 7 days in culture
Method: Survival of Embryonic Rat Dopaminergic Neurons
In this experiment the effect of a test compound on the survival of dopaminergic neurons in dissociated cultures established from rat E14 ventral mesencephali (VM) is assessed.
Embryonic rat brains (Wistar; E14) were isolated under sterile conditions placed in chilled Gey's balanced salt solution (GIBCO) with glucose (6.5 mg/ml).
The ventral mesencephali were dissected out, cut into small tissue pieces, placed in Neurobasal medium with B27 supplement and gently pressed through a 80 μm Nitex filter. The cells were counted using a hemocytometer and plated in a 6 well multi-dish at a density of approximately 2.0×10^6 cells/well. Culture dishes were pre-coated with poly-D-lysine.
After 1 hour, the medium was removed and fresh medium added (1.5 ml/well). […] Untreated cultures served as controls. The medium was changed every other day and antimitotics and antibiotics were not used at any stage.
After 7 days in culture, cultures were then immunostained for tyrosine hydroxylase (TH). Briefly, the cells were washed in 0.05M tris-buffered saline (TBS, pH 7.4) containing 1% Triton X-100 for 3×15 minutes and incubated with 10% foetal bovine serum (FBS, Life Technologies) in TBS for 30 minutes. The cells were then incubated for 24 hours at 4° C. with monoclonal mouse anti-TH antibody (Boehringer Mannheim) diluted 1:600 in TBS with 10% FBS. After rinsing in TBS with 1% Triton X-100 for 3×15 minutes, cells were incubated for 60 minutes with biotinylated anti-mouse IgG antibody (Amersham) diluted 1:200 in TBS with 10% FBS. The cells were then washed in TBS with 1% Triton X-100 (3×15 minutes) and incubated for 60 minutes with streptavidine-peroxidase (Dako) diluted 1:200 in TBS with 10% FBS. After washing in TBS (3×15 minutes), bound antibody was visualised by treatment with 0.05% 3,3-diaminobenzidine (Sigma) in TBS containing 0.01% H2O2. TH-immunoreactive (ir) cells were counted manually.

[3] = target: T2, dopamine transporter (Rattus norvegicus, UniProt P23977); experiment: Inhibition of in vitro [3H]WIN 35428 binding to the dopamine transporter in rat striatal synaptosomes; conditions: [3H]WIN 35428 1 nM
T2 construct: Striata from male Wistar rats (150-200 g) are homogenized; from tissue; host or cells: rat striatum (male Wistar), membrane pellet
T2 sequence (P23977 whole entry): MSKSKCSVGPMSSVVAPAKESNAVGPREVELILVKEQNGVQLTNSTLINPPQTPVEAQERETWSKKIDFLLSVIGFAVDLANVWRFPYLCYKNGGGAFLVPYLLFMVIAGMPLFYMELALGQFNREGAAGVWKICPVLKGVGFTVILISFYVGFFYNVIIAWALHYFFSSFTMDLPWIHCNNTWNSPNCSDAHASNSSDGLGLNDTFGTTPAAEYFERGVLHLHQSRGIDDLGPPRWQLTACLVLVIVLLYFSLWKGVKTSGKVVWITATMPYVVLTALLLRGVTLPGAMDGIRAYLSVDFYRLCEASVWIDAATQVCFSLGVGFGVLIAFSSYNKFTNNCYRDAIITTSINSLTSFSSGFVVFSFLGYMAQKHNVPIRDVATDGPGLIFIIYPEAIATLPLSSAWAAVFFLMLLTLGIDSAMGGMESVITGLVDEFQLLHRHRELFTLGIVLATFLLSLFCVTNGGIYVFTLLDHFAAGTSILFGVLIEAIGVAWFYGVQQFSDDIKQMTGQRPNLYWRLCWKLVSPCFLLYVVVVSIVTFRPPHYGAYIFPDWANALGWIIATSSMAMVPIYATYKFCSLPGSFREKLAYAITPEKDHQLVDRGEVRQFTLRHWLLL
Method: Inhibition of In Vitro [^3H]WIN 35428 Binding to the Dopamine Transporter in Rat Striatal Synaptosomes
In this method the ability of test compounds to inhibit the binding of WIN 35428 to the dopamine transporter in vitro is assessed.
Tissue preparation: Striata from male Wistar rats (150-200 g) are homogenized for 5-10 sec in 10 ml NaH2PO4 (50 mM, pH 7.4) using an Ultra-Turrax homogenizer. The suspension is centrifuged at 27,000×g for 15 min. The supernatant is discarded and the pellet is resuspended in phosphate buffer (1000 ml per g of original tissue) and used for binding assays.
Binding assays: Aliquots of 0.5 ml tissue suspension are added to 0.025 ml of test solution and 0.025 ml of [^3H]WIN 35428 (1 nM, final concentration), mixed and incubated for 60 min at 2° C. Non-specific binding is determined using cocaine (30 μM, final concentration).
After incubation 5 ml of ice-cold buffer is added to the samples and poured directly onto Whatman GF/C glass fiber filters (for the [^3H]GBR 12935 assay the filters are presoaked in 0.1% PEI for at least 20 min) under suction and immediately washed with 5 ml ice-cold buffer. The amount of radioactivity on the filters is determined by conventional liquid scintillation counting using a Tri-carb liquid scintillation analyzer (model 1600CA; Packard, USA). […]

T1 sequence (P23977 whole entry): as above

Question: With `O=C1Nc2c(cc(-c3ccc(Cl)cc3)c3c2CCCC3)C1=NO` [compound a, 5-(4-Chlorophenyl)-6,7,8,9-tetrahydro-1-H-pyrrolo[3.2-h]naphthalene-2,3-dione-3-oxime] as the compound, how does the IC50 [1] read?
Answer: 34 nM

Question: And the “Inhibition of cell loss” value ([2]; 0.3 μM compound a)?
Answer: 74%

Question: What about the “Inhibition of cell loss” value ([2]; 1.0 μM compound a) of the same compound?
Answer: 62%

Question: What about the “Inhibition of cell loss” value ([2]; 3.0 μM compound a) of the same compound?
Answer: 17%

Question: And the IC50 [3]?
Answer: 140 nM
